Assay results published in patent US11912699B2, “Tau-protein targeting compounds and associated” (Arvinas Operations, Inc., priority 2019, dated 2024).
Read-outs that look alike come from different tables or passages of the source.

Target: T1, Tau P301L (Homo sapiens, UniProt P10636, P618L)
T1 construct: expressed in transfected cells
Experiment: In vitro tau degradation assay in CHOK1 Tau P301L cells (sarkosyl insoluble tau, WES)
Assay type: cell-based
Details: CHO-K1, relative to DMSO doxycycline control, read-out: Tau Protein Degradation effect at 1 μM
Procedure, shortened: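 T-Rex CHOK1 clone D1 with doxycycline-inducible (1 μg/ml) Tau P301L treated 48 h with compound at 1 μM, doxycycline removed for the final 24 h. Sarkosyl-insoluble tau quantified by WES capillary electrophoresis with Tau1 antibody, expressed relative to DMSO doxycycline control and binned as ≤50% or >50% remaining.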

[1] = CHOK1 Tau P301L cells, remaining tau in sarkosyl insoluble pellet, 48 hours with test compound at 1 μM, doxycycline removed for last 24 hours
[2] = remaining tau protein in sarkosyl insoluble pellet, CHOK1 Tau P301L cells treated 48 hours with test compound at 1 μM, doxycycline removed for the last 24 hours

T1 sequence (P10636 1-441 isoform P10636-8 P301L): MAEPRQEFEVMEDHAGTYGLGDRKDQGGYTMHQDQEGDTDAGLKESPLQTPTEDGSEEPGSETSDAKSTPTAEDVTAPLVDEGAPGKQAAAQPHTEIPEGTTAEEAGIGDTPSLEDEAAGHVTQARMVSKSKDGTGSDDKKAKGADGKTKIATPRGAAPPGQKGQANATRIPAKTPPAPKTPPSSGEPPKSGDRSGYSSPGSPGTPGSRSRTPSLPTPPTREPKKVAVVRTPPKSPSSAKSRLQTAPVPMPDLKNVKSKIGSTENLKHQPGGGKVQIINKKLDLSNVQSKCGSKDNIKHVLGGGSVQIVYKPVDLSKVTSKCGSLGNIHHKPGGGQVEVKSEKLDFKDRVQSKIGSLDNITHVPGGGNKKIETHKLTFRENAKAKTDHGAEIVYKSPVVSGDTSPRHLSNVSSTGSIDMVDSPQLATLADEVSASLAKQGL

SMILES | remaining activity at 1 µM [1] | remaining activity at 1 µM [2]
COc1cc(N2CCN(CCC3CCN(c4ncc(-c5ccc6c7cnccc7n(C(F)F)c6c5)cc4F)CC3)CC2)cc2c1C(=O)N(C1CCC(=O)NC1=O)C2=O (centres unmarked) [Compound 635, 6-(4-(2-(1-(5-(5-(difluoromethyl)-5H-pyrido[4,3-b]indol-7-yl)-3-fluoropyridin-2-yl)piperidin-4-yl)ethyl)piperazin-1-yl)-2-(2,6-dioxopiperidin-3-yl)-4-methoxyisoindoline-1,3-dione] | < 50% | 
O=C1CCC(N2C(=O)c3ccc(OCCC4CCN(C[C@H]5C[C@H](Oc6ncc(-c7ccc8c9cnccc9n(C(F)F)c8c7)cc6F)C5)CC4)cc3C2=O)C(=O)N1 (some centres unmarked) [Compound 636, 5-(2-(1-(((1r,3r)-3-((5-(5-(difluoromethyl)-5H-pyrido[4,3-b]indol-7-yl)-3-fluoropyridin-2-yl)oxy)cyclobutyl)methyl)piperidin-4-yl)ethoxy)-2-(2,6-dioxopiperidin-3-yl)isoindoline-1,3-dione] | > 50% | 
CC(C)N(C1CCN(c2ncc(-c3ccc4c5cnccc5n(C(F)F)c4c3)cc2F)CC1)[C@H]1C[C@H](Oc2ccc3c(c2)C(=O)N(C2CCC(=O)NC2=O)C3=O)C1 (some centres unmarked) [Compound 638] | < 50% | 
O=C1CCC(N2C(=O)c3cc(F)c(N4CCCN(CCC5CCN(c6ncc(-c7ccc8c9cnccc9n(C(F)F)c8c7)cc6F)CC5)CC4)cc3C2=O)C(=O)N1 (centres unmarked) [Compound 639, 5-(4-(2-(1-(5-(5-(difluoromethyl)-5H-pyrido[4,3-b]indol-7-yl)-3-fluoropyridin-2-yl)piperidin-4-yl)ethyl)-1,4-diazepan-1-yl)-2-(2,6-dioxopiperidin-3-yl)-6-fluoroisoindoline-1,3-dione] | < 50% | 
O=C1CCC(N2C(=O)c3cc(F)c(N4CCC(CN5CC6(C5)CN(C[C@H]5C[C@H](Oc7ccc(-c8ccc9c%10cnccc%10n(C(F)F)c9c8)cn7)C5)C6)CC4)cc3C2=O)C(=O)N1 (some centres unmarked) [Compound 640, 5-(4-((6-(((1r,3r)-3-((5-(5-(difluoromethyl)-5H-pyrido[4,3-b]indol-7-yl)pyridin-2-yl)oxy)cyclobutyl)methyl)-2,6-diazaspiro[3.3]heptan-2-yl)methyl)piperidin-1-yl)-2-(2,6-dioxopiperidin-3-yl)-6-fluoroisoindoline-1,3-dione] | < 50% | 
O=C1CCC(N2C(=O)c3cc(N4CCN(CCC5CCN(c6ncc(-c7ccc8c9cnccc9n(C(F)F)c8c7)cc6F)CC5)CC4)cc(C(F)F)c3C2=O)C(=O)N1 (centres unmarked) [Compound 641, 4-(difluoromethyl)-6-(4-(2-(1-(5-(5-(difluoromethyl)-5H-pyrido[4,3-b]indol-7-yl)-3-fluoropyridin-2-yl)piperidin-4-yl)ethyl)piperazin-1-yl)-2-(2,6-dioxopiperidin-3-yl)isoindoline-1,3-dione] | < 50% | 
O=C1CCC(N2C(=O)c3cc(F)c(N4CC5(CN(CCC6CCN(c7ncc(-c8ccc9c%10cnccc%10n(C(F)F)c9c8)cc7F)CC6)C5)C4)cc3C2=O)C(=O)N1 (centres unmarked) [Compound 642, 5-(6-(2-(1-(5-(5-(difluoromethyl)-5H-pyrido[4,3-b]indol-7-yl)-3-fluoropyridin-2-yl)piperidin-4-yl)ethyl)-2,6-diazaspiro[3.3]heptan-2-yl)-2-(2,6-dioxopiperidin-3-yl)-6-fluoroisoindoline-1,3-dione] | < 50% | 
O=C1CCC(N2C(=O)c3cc(F)c(OCCN4CCC(O[C@H]5C[C@@H](N6CCC(c7ccc8c9cnccc9n(C(F)F)c8c7)CC6)C5)CC4)cc3C2=O)C(=O)N1 (some centres unmarked) [Compound 644] | < 50% | 
O=C1CCC(N2C(=O)c3cc(F)c(N4CCN(CCC5CCN(c6ncc(-c7c(F)cc8c9cnccc9n(CC(F)(F)F)c8c7F)cn6)CC5)CC4)cc3C2=O)C(=O)N1 (centres unmarked) [Compound 645, 5-(4-(2-(1-(5-(6,8-difluoro-5-(2,2,2-trifluoroethyl)-5H-pyrido[4,3-b]indol-7-yl)pyrimidin-2-yl)piperidin-4-yl)ethyl)piperazin-1-yl)-2-(2,6-dioxopiperidin-3-yl)-6-fluoroisoindoline-1,3-dione] | < 50% | 
O=C1CCC(N2C(=O)c3cc(F)c(OCCN4CC5(C4)CN(C[C@H]4C[C@H](Oc6ncc(-c7ccc8c9cnccc9n(C(F)F)c8c7)cc6F)C4)C5)cc3C2=O)C(=O)N1 (some centres unmarked) [Compound 646, 5-(2-(6-(((1r,3r)-3-((5-(5-(difluoromethyl)-5H-pyrido[4,3-b]indol-7-yl)-3-fluoropyridin-2-yl)oxy)cyclobutyl)methyl)-2,6-diazaspiro[3.3]heptan-2-yl)ethoxy)-2-(2,6-dioxopiperidin-3-yl)-6-fluoroisoindoline-1,3-dione] | < 50% | 
CN1CCc2[nH]c3cc(-c4cnc(N5CCC(CCN6CCN(c7cc8c(cc7F)C(=O)N(C7CCC(=O)NC7=O)C8=O)CC6)CC5)c(F)c4)ccc3c2C1 (centres unmarked) [Compound 647, 2-(2,6-dioxopiperidin-3-yl)-5-fluoro-6-(4-(2-(1-(3-fluoro-5-(2-methyl-2,3,4,5-tetrahydro-1H-pyrido[4,3-b]indol-7-yl)pyridin-2-yl)piperidin-4-yl)ethyl)piperazin-1-yl)isoindoline-1,3-dione] | > 50% | 
O=C1CCC(N2C(=O)c3ccc(N4CCN(CCC5CCN(c6ncc(-c7ccc8c9cncc(F)c9n(C(F)F)c8c7)cc6F)CC5)CC4)cc3C2=O)C(=O)N1 (centres unmarked) [Compound 652, 5-(4-(2-(1-(5-(5-(difluoromethyl)-4-fluoro-5H-pyrido[4,3-b]indol-7-yl)-3-fluoropyridin-2-yl)piperidin-4-yl)ethyl)piperazin-1-yl)-2-(2,6-dioxopiperidin-3-yl)isoindoline-1,3-dione] |  | < 50%
CN(C)c1cccc2cnc(-n3ccc4cc(N5CCC(CCN6CCN(c7cc8c(cc7F)C(=O)N(C7CCC(=O)NC7=O)C8=O)CC6)CC5)ncc43)cc12 (centres unmarked) [Compound 653, 5-(4-(2-(1-(1-(5-(dimethylamino)isoquinolin-3-yl)-1H-pyrrolo[2,3-c]pyridin-5-yl)piperidin-4-yl)ethyl)piperazin-1-yl)-2-(2,6-dioxopiperidin-3-yl)-6-fluoroisoindoline-1,3-dione] |  | < 50%
O=C1CCC(N2C(=O)c3ccc(N4CCN(CCC5CCN(c6ccnc(Nc7ccc8ncccc8n7)c6)CC5)CC4)cc3C2=O)C(=O)N1 (centres unmarked) [Compound 656, 5-(4-(2-(1-(2-((1,5-naphthyridin-2-yl)amino)pyridin-4-yl)piperidin-4-yl)ethyl)piperazin-1-yl)-2-(2,6-dioxopiperidin-3-yl)isoindoline-1,3-dione] |  | < 50%
O=C1CCC(N2C(=O)c3ccc(N4CCN(CC5CCN(C[C@H]6C[C@H](Oc7ncc(-c8ccc9c%10cnccc%10n(C(F)F)c9c8)cc7F)C6)CC5)CC4)cc3C2=O)C(=O)N1 (some centres unmarked) [Compound 667, 5-(4-((1-(((1r,3r)-3-((5-(5-(difluoromehtyl)-5H-pyrido[4,3-b]indol-7-yl)-3-fluoropyridin-2-yl)oxy)cyclobutyl)methyl)piperidin-4-yl)methyl)piperazin-1-yl)-2-(2,6-dioxopiperidin-3-yl) isoindoline-1,3-dione] |  | < 50%
O=C1CCC(N2C(=O)c3ccc(N4CCN(CCC5CCN(c6ncc(-c7ccc8c9cnccc9n(CC(F)(F)F)c8n7)cc6F)CC5)CC4)cc3C2=O)C(=O)N1 (centres unmarked) [Compound 673, 2-(2,6-dioxopiperidin-3-yl)-5-(4-(2-(1-(3-fluoro-5-(9-(2,2,2-trifluoroethyl)-9H-pyrrolo[2,3-b:4,5-c′]dipyridin-2-yl)pyridin-2-yl)piperidin-4-yl)ethyl)piperazin-1-yl)isoindoline-1,3-dione] |  | < 50%
O=C1CCC(N2C(=O)c3ccc(N4CCN(CCC5CCN(c6ncc(-c7ccc8c9cnccc9n(C(F)F)c8n7)cc6F)CC5)CC4)cc3C2=O)C(=O)N1 (centres unmarked) [Compound 674, 5-(4-(2-(1-(5-(9-(difluoromethyl)-9H-pyrrolo[2,3-b:4,5-c′]dipyridin-2-yl)-3-fluoropyridin-2-yl)piperidin-4-yl)ethyl)piperazin-1-yl)-2-(2,6-dioxopiperidin-3-yl)isoindoline-1,3-dione] |  | < 50%
O=C1CCC(N2C(=O)c3ccc(N4CCN(CCC5CCN(c6c(F)cc(-c7ccc8c9cnccc9n(C(F)F)c8n7)cc6F)CC5)CC4)cc3C2=O)C(=O)N1 (centres unmarked) [Compound 676, 5-(4-(2-(1-(4-(9-(difluoromethyl)-9H-pyrrolo[2,3-b:4,5-c′]dipyridin-2-yl)-2,6-difluorophenyl)piperidin-4-yl)ethyl)piperazin-1-yl)-2-(2,6-dioxopiperidin-3-yl)isoindoline-1,3-dione] |  | < 50%
CC(C)(CC1CCN(c2ncc(-c3ccc4c5cnccc5n(C(F)F)c4c3)cc2F)CC1)N1CCN(c2ccc3c(c2)C(=O)N(C2CCC(=O)NC2=O)C3=O)CC1 (centres unmarked) [Compound 677, 5-(4-(1-(1-(5-(5-(difluoromethyl)-5H-pyrido[4,3-b]indol-7-yl)-3-fluoropyridin-2-yl)piperidin-4-yl)-2-methylpropan-2-yl)piperazin-1-yl)-2-(2,6-dioxopiperidin-3-yl)isoindoline-1,3-dione] |  | < 50%
O=C1CCC(N2C(=O)c3ccc(N4CCN(CCC5CCN(c6ccc(-c7c(F)cc8c9cnccc9n(C(F)F)c8c7F)cn6)CC5)CC4)cc3C2=O)C(=O)N1 (centres unmarked) [Compound 679, 5-(4-(2-(1-(5-(5-(difluoromethyl)-6,8-difluoro-5H-pyrido[4,3-b]indol-7-yl)pyridin-2-yl)piperidin-4-yl)ethyl)piperazin-1-yl)-2-(2,6-dioxopiperidin-3-yl)isoindoline-1,3-dione] |  | < 50%
